13 molecules from patent US20140113824A1, “BICYCLIC (THIO)CARBONYLAMIDINES” (BAYER INTELLECTUAL PROPERTY GMBH, priority 2011, published 2014) can be followed below.

Read-outs that look alike come from different tables or passages of the source.

Assay type in all cases: in vivo
Assay [1] concerns green peach aphid (Myzus persicae). The assay is described as follows: Myzus test (MYZUPE spray treatment). As to conditions: for pest or weed control at 500 g/ha: Myzus persicae, foliar, 144 h, read-out: effect in % (aphids killed). Here is the method:
2. Myzus Test (MYZUPE Spray Treatment)
(§1) Solvents: 78.0 parts by weight of acetone • • 1.5 parts by weight of dimethylformamide Emulsifier: 0.5 part by weight of alkylaryl polyglycol ether
(§2) To produce a suitable preparation of active compound, 1 part by weight of active compound is mixed with the stated amounts of solvent and emulsifier, and the concentrate is diluted with emulsifier-containing water to the desired concentration.
Disks of Chinese cabbage leaves (Brassica pekinensis) infested by all stages of the green peach aphid (Myzus persicae) are sprayed with an active compound preparation of the desired concentration.
After 6 days, the effect in % is determined. 100% means that all of the aphids have been killed; 0% means that none of the aphids have been killed.

Assay [2] has as its system larvae of the mustard beetle (Phaedon cochleariae). The assay is described as follows: Phaedon test (PHAECO spray treatment). To be noted: application rate 500 g/ha; spray on Chinese cabbage leaf disks; after 7 days. Here is the method: 1. Phaedon Test (PHAECO Spray Treatment)
as §1, §2
Disks of Chinese cabbage leaves (Brassica pekinensis) are sprayed with an active compound preparation of the desired concentration and, after drying, populated with larvae of the mustard beetle (Phaedon cochleariae).
After 7 days, the effect in % is determined. 100% means that all beetle larvae have been killed; 0% means that none of the beetle larvae have been killed.

The next assay deals with Lucilia cuprina larvae. The assay is described as follows: Lucilia cuprina test (LUCICU). As to conditions: 100 ppm; treated horse meat; after 48 hours. As to the method:
5. Lucilia cuprina Test (LUCICU)
(§3) Solvent: dimethyl sulfoxide
(§4) To produce a suitable preparation of active compound, 10 mg of active compound are mixed with 0.5 ml of dimethyl sulfoxide, and the concentrate is diluted with water to the desired concentration.
Vessels containing horse meat treated with the active compound preparation of the desired concentration are populated with about 20 Lucilia cuprina larvae.
After 48 hours, the kill in % is determined 100% means that all larvae have been killed; 0% means that no larvae have been killed.

The subject of another assay is Cooperia curticei larvae. Nature of the assay: Cooperia curticei test (COOPCU). To be noted: 100 ppm in Ringer solution; after 5 days. Here is the method: 7. Cooperia curticei Test (COOPCU)
as §3
To produce a suitable preparation of active compound, 10 mg of active compound are mixed with 0.5 ml of dimethyl sulfoxide, and the concentrate is diluted with Ringer solution to the desired concentration. Vessels containing the active compound preparation of the desired concentration are populated with about 40 Cooperia curticei larvae.
After 5 days, the kill in % is determined. 100% means that all larvae have been killed; 0% means that no larvae have been killed.

The next assay concerns adult Musca domestica. Nature of the assay: Musca domestica test (MUSCDO). As to conditions: 100 ppm; treated sponge; after 2 days. Here is the method:
6. Musca domestica Test (MUSCDO)
as §3, §4
Vessels containing a sponge treated with the active compound formulation of the desired concentration are populated with adult Musca domestica.
After 2 days, the kill in % is determined. 100% means that all of the flies have been killed; 0% means that none of the flies have been killed.

Assay [3] has as its system adult fleas (Ctenocephalides felis). Nature of the assay: Ctenocephalides felis; oral (CTECFE). As to conditions: 100 ppm in citrated cattle blood, after 2 days. Here is the method: 4. Ctenocephalides felis; Oral (CTECFE)
Solvents: 1 part by weight of dimethyl sulfoxide
To produce a suitable preparation of active compound, 10 mg of active compound are mixed with 0.5 ml of dimethyl sulfoxide. A portion of the concentrate is diluted with citrated cattle blood, and the desired concentration is prepared.
About 20 unfed adult fleas (Ctenocephalides felis) are placed into a chamber which is closed at the top and bottom with gauze. A metal cylinder whose bottom end is closed with parafilm is placed onto the chamber. The cylinder contains the blood/active compound preparation, which can be taken up by the fleas through the parafilm membrane.
After 2 days, the kill in % is determined 100% means that all of the fleas have been killed; 0% means that none of the fleas have been killed.

In assay [4] the test system is greenhouse red spider mite (Tetranychus urticae). The assay is described as follows: Tetranychus test, OP-resistant (TETRUR spray treatment). To be noted: application rate 100 g/ha; spray on infested bean leaf disks; after 6 days. As to the method: 3. Tetranychus Test, OP-Resistant (TETRUR Spray Treatment)
as §1, §2
Disks of bean leaves (Phaseolus vulgaris) which are infested by all stages of the greenhouse red spider mite (Tetranychus urticae) are sprayed with an active compound preparation of the desired concentration.
After 6 days, the effect in % is determined. 100% here means that all of the spider mites have been killed. 0% means that none of the spider mites have been killed.

Where [5] appears, read: application rate 500 g/ha, spray on infested Chinese cabbage leaf disks, after 6 days.

Turning to `O=c1oc2cccnc2n1Cc1ccc(C(F)(F)F)nc1` [IV-I, 3-(6-trifluoromethylpyridin-3-ylmethyl)oxazolo[4,5-b]-2(3H)-one], the “effect in % (aphids killed)” value in assay [1] (setting [5]) came out at 90%.

Take `O=c1nc2n(Cc3cnc(Cl)c(Cl)c3)cccc-2o1` [Example I-2, 4-(5,6-Dichloropyridin-3-ylmethyl)oxazolo[4,5-b]pyridin-2(4H)-one]: in assay [2], the “effect in % (beetle larvae killed)” value came out at 100%. Also, the “kill in % (larvae killed)” value in the assay on Lucilia cuprina larvae came out at 100%. Also, the pest or weed control at 500 g/ha in assay [1] (in Brassica rapa) is 100%.

For the molecule `O=c1nc2n(Cc3ccc(C(F)(F)F)nc3)cccc-2o1` [Example I-1, 4-(6-Trifluoromethylpyridin-3-ylmethyl)oxazolo[4,5-b]pyridin-2(4H)-one], the pest or weed control at 500 g/ha in assay [1] (setting [5]) stood at 100%.

Take `O=c1nc2n(Cc3ccc(Cl)nc3)cccc-2o1` [Example I-3, 4-(6-Chloropyridin-3-ylmethyl)oxazolo[4,5-b]pyridin-2(4H)-one]: the figures for the “kill in % (larvae killed)” value in the assay with Cooperia curticei larvae and in the assay on Lucilia cuprina larvae were 80% and 100%, respectively. Moreover, in assay [2], the “effect in % (beetle larvae killed)” value is 100%. The pest or weed control at 500 g/ha in assay [1] (in Brassica rapa) worked out at 100%.

On to `Cc1cnc(Cn2cccc3oc(=O)nc2-3)cn1` [Example I-5, 4-(5-Methylpyrazin-2-ylmethyl)oxazolo[4,5-b]pyridin-2(4H)-one], for which, in assay [1] (setting [5]), the pest or weed control at 500 g/ha was determined as 100%.

Turning to `O=c1nc2n(Cc3ccc(Br)nc3)cccc-2o1` [Example I-10, 4-(6-Bromopyridin-3-ylmethyl)oxazolo[4,5-b]pyridin-2(4H)-one], the “effect in % (beetle larvae killed)” value in assay [2] was 100%. Moreover, the pest or weed control at 500 g/ha in assay [1] (in Brassica rapa) was determined as 100%.

Take `O=c1nc2n(Cc3cnc(Cl)c(F)c3)cccc-2o1` [Example I-4, 4-(6-Chloro-5-fluoropyridin-3-ylmethyl)oxazolo[4,5-b]pyridin-2(4H)-one]: in the assay on adult Musca domestica, the “kill in % (flies killed)” value worked out at 80%. The “effect in % (beetle larvae killed)” value in assay [2] was determined as 100%. Further, the “kill in % (larvae killed)” value in the assay on Lucilia cuprina larvae came out at 100%. Further, the pest or weed control at 500 g/ha in assay [1] (in Brassica rapa) turned out to be 100%.

As for `O=c1nc2n(Cc3ccc(Cl)nc3)cc(Br)cc-2o1` [Example I-11, 6-Bromo-4-(6-chloropyridin-3-ylmethyl)oxazolo[4,5-b]pyridin-2(4H)-one], in assay [1] (in Brassica rapa), the pest or weed control at 500 g/ha was 100%.

On to `O=c1oc2cccnc2n1Cc1cnc(Cl)c(Cl)c1` [IV-2, 3-(5,6-dichloropyridin-3-ylmethyl)oxazolo[4,5-b]-2(3H)-one], for which the “effect in % (aphids killed)” value in assay [1] (setting [5]) came to 100%.

On to `O=c1nc2n(Cc3cnc(Cl)s3)cccc-2o1` [Example I-6, 4-(2-Chloro-1,3-thiazol-5-ylmethyl)oxazolo[4,5-b]pyridin-2(4H)-one], for which the “kill in % (fleas killed)” value in assay [3] is given as 80%. For the same molecule, the “effect in % (beetle larvae killed)” value in assay [2] is listed as 100%. The “kill in % (larvae killed)” value with Lucilia cuprina larvae turned out to be 100%. For the same molecule, the pest or weed control at 500 g/ha in assay [1] (in Brassica rapa) was 100%.

As for `O=c1nc2n(Cc3ccc(F)nc3)cccc-2o1` [Example I-9, 4-(6-Fluoropyridin-3-ylmethyl)oxazolo[4,5-b]pyridin-2(4H)-one], the “kill in % (larvae killed)” value with Lucilia cuprina larvae is recorded as 100%. The pest or weed control at 500 g/ha in assay [1] (in Brassica rapa) was found to be 100%.

Consider `O=C1N=C2C(CCCN2Cc2ccc(Cl)nc2)O1` (stereo not shown) [Example I-16, 4-(6-Chloropyridin-3-ylmethyl)-5,6,7,7a-tetrahydrooxazolo[4,5-b]-pyridin-2(4H)-one], for which, in assay [4], the “effect in % (spider mites killed)” value came to 100%. Moreover, in assay [2], the “effect in % (beetle larvae killed)” value is reported as 100%. In assay [1] (in Brassica rapa), the pest or weed control at 500 g/ha was 100%.

Turning to `CC(=O)N(Cc1ccc(Cl)nc1)c1ncccc1OCc1ccc(Cl)nc1` [Example I-16a, 2-[(N-acetyl, N′-(6-chloropyridin-3-ylmethyl)amino)]-3-(6-chloropyridin-3-ylmethoxy)pyridine], the “effect in % (spider mites killed)” value in assay [4] is 90%.
